Source: PubChem BioAssay (NCI)
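Cells were grown in 96-well plates and exposed to each compound for 48 hours at five concentrations; endpoints were interpolated linearly between bracketing concentrations, or set to the highest concentration if not reached. Here, GI50 denotes the concentration required for 50% inhibition of growth. TGI marks complete inhibition of growth.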

Columns and labels:
Test in all cases: DTP human tumour cell line panel, 48 h
[1] = tested on: 786-0 renal
[2] = tested on: A498 renal
[3] = tested on: BT-549 breast
[4] = tested on: HCC-2998 colon
[5] = tested on: IGROV1 ovarian
[6] = tested on: MDA-MB-231 breast
[7] = tested on: NCI/ADR-RES ovarian
[8] = tested on: OVCAR-4 ovarian
[9] = tested on: SK-OV-3 ovarian
[10] = tested on: UACC-257 melanoma

Structure (SMILES): Cc1ccc(/C=C(/C#N)n2nnc3ncccc32)cc1
- GI50 [1]: 2.99 µM
- TGI [1]: 16.4 µM
- GI50 [2]: 2.28 µM
- TGI [2]: 7.51 µM
- GI50 [3]: 2.46 µM
- TGI [3]: 19.7 µM
- GI50 [4]: 3.37 µM
- TGI [4]: 12.2 µM
- GI50 [5]: 2.28 µM
- TGI [5]: 21.5 µM
- GI50 [6]: 2.41 µM
- TGI [6]: 8.44 µM
- GI50 [7]: 1.37 µM
- TGI [7]: > 100 µM
- GI50 [8]: 2.14 µM
- TGI [8]: 15.8 µM
- GI50 [9]: 3.9 µM
- TGI [9]: > 100 µM
- GI50 [10]: 4.24 µM
- TGI [10]: 22.2 µM

Structure (SMILES): CS(=O)(=O)c1ccc2c(c1)C(=O)c1c-2n(CCCBr)c(=O)c2cc([N+](=O)[O-])ccc12
- GI50 [1]: 6.07 µM
- TGI [1]: > 100 µM
- GI50 [2]: 0.127 µM
- TGI [2]: 14.8 µM
- GI50 [3]: 26.7 µM
- TGI [3]: > 100 µM
- GI50 [4]: 24.8 µM
- TGI [4]: > 100 µM
- GI50 [5]: 13.6 µM
- TGI [5]: > 100 µM
- GI50 [6]: 51.1 µM
- TGI [6]: > 100 µM
- GI50 [7]: 27.3 µM
- TGI [7]: > 100 µM
- GI50 [8]: 47.4 µM
- TGI [8]: > 100 µM
- GI50 [9]: 7.58 µM
- TGI [9]: > 100 µM
- GI50 [10]: 43.7 µM
- TGI [10]: > 100 µM

Structure (SMILES): COC(=O)CC1C2(C)C3=C(C)C(c4ccoc4)CC3OC2C2OC(=O)C3(C)C=CC(=O)C1(C)C23 (stereo not given)
- TGI [1]: 2.34 µM
- TGI [2]: 4.99 µM
- TGI [3]: 2.35 µM
- TGI [4]: 2.7 µM
- TGI [5]: 3.29 µM
- TGI [6]: 2.81 µM
- TGI [7]: 14.1 µM
- TGI [8]: 10.1 µM
- TGI [9]: 14.9 µM
- TGI [10]: 5.02 µM

Structure (SMILES): CCNC(=O)Oc1ccc(/C(=C(\C)c2ccc(Cl)cc2)c2ccc(OCCN(CC)CC)cc2)cc1
- GI50 [1]: 1.76 µM
- TGI [1]: 3.42 µM
- GI50 [2]: 14.3 µM
- TGI [2]: 29.6 µM
- GI50 [3]: 5.33 µM
- TGI [3]: 18.5 µM
- GI50 [4]: 4.39 µM
- TGI [4]: 16.3 µM
- GI50 [5]: 3.66 µM
- TGI [5]: 15.3 µM
- GI50 [6]: 3.02 µM
- TGI [6]: 8.17 µM
- GI50 [7]: 6.8 µM
- TGI [7]: 22.7 µM
- GI50 [8]: 3.65 µM
- TGI [8]: 17.3 µM
- GI50 [9]: 10.7 µM
- TGI [9]: 22.8 µM
- GI50 [10]: 2.11 µM
- TGI [10]: 4.36 µM

Structure (SMILES): Clc1ccc(-c2nc3c(-c4ccccc4)nc(-c4ccccc4)cn3c2-c2ccc(Cl)cc2)cc1
- GI50 [1]: > 100 µM
- TGI [1]: > 100 µM
- GI50 [2]: > 100 µM
- TGI [2]: > 100 µM
- GI50 [3]: > 100 µM
- TGI [3]: > 100 µM
- GI50 [4]: > 100 µM
- TGI [4]: > 100 µM
- GI50 [5]: > 100 µM
- TGI [5]: > 100 µM
- GI50 [6]: > 100 µM
- TGI [6]: > 100 µM
- GI50 [7]: > 100 µM
- TGI [7]: > 100 µM
- GI50 [8]: > 100 µM
- TGI [8]: > 100 µM
- GI50 [9]: > 100 µM
- TGI [9]: > 100 µM
- GI50 [10]: > 100 µM
- TGI [10]: > 100 µM

Structure (SMILES): NC(CP(=O)(O)O)C(=O)O (stereo not given)
- TGI [1]: > 100 µM
- TGI [2]: > 100 µM
- TGI [3]: > 100 µM
- TGI [4]: > 100 µM
- TGI [5]: > 100 µM
- TGI [6]: > 100 µM
- TGI [7]: > 100 µM
- TGI [8]: > 100 µM
- TGI [9]: > 100 µM
- TGI [10]: > 100 µM

Structure (SMILES): Cc1cncc(-c2nc(NCCc3c[nH]c4ccccc34)c3ncn(C(C)C)c3n2)c1
- GI50 [1]: 2.01 µM
- TGI [1]: 6.01 µM
- GI50 [2]: 3.4 µM
- TGI [2]: 16.9 µM
- GI50 [3]: 2.99 µM
- TGI [3]: 15 µM
- GI50 [4]: 4.12 µM
- TGI [4]: 15.1 µM
- GI50 [5]: 5.94 µM
- TGI [5]: 22.1 µM
- GI50 [6]: 4.3 µM
- TGI [6]: 17.6 µM
- GI50 [7]: 3.69 µM
- TGI [7]: 24 µM
- GI50 [8]: 3.93 µM
- TGI [8]: 39.6 µM
- GI50 [9]: 5.76 µM
- TGI [9]: 35.7 µM
- GI50 [10]: 1.91 µM
- TGI [10]: 3.85 µM

Structure (SMILES): NC(=O)c1cc(I)ccc1NC(=O)/C=C/c1ccccc1Cl
- GI50 [1]: 0.77 µM
- TGI [1]: 20 µM
- GI50 [2]: 0.483 µM
- TGI [2]: 8.01 µM
- GI50 [3]: 0.816 µM
- TGI [3]: 94.7 µM
- GI50 [4]: 0.969 µM
- TGI [4]: 5.61 µM
- GI50 [5]: 0.352 µM
- TGI [5]: 16.9 µM
- GI50 [6]: 1.63 µM
- TGI [6]: 31.9 µM
- GI50 [7]: 0.506 µM
- TGI [7]: 4.65 µM
- GI50 [8]: 2.26 µM
- TGI [8]: 67.7 µM
- GI50 [9]: 0.529 µM
- TGI [9]: 14.9 µM
- GI50 [10]: 38.7 µM
- TGI [10]: > 100 µM

Structure (SMILES): CON=C1C[C@]2(C[C@@H]3C[C@@H](C/C=C(\C)C[C@@H](C)/C=C/C=C4\CO[C@@H]5[C@H](O)C(C)=C[C@@H](C(=O)O3)[C@]45O)O2)O[C@H](/C(C)=C/C(C)C)[C@H]1C
- GI50 [1]: 14.2 µM
- TGI [1]: 28.4 µM
- GI50 [2]: 10.5 µM
- TGI [2]: 22.9 µM
- GI50 [3]: 18 µM
- TGI [3]: 33.4 µM
- GI50 [4]: 12.1 µM
- TGI [4]: 26.9 µM
- GI50 [5]: 11.5 µM
- TGI [5]: 23.9 µM
- GI50 [6]: 11.2 µM
- TGI [6]: 24.9 µM
- GI50 [7]: 14.4 µM
- TGI [7]: 29 µM
- GI50 [8]: 16 µM
- TGI [8]: 29.7 µM
- GI50 [9]: 15.2 µM
- TGI [9]: 28.5 µM
- GI50 [10]: 16.9 µM
- TGI [10]: 32.9 µM

Structure (SMILES): O=C(CN1CCN(CCN2C(=O)c3cccc4cccc(c34)C2=O)CC1)Nc1ccc2ncsc2c1
- GI50 [1]: 5.82 µM
- TGI [1]: 20.8 µM
- GI50 [2]: 22.3 µM
- TGI [2]: > 100 µM
- GI50 [3]: 11.9 µM
- TGI [3]: 30.1 µM
- GI50 [4]: 5.84 µM
- TGI [4]: > 100 µM
- GI50 [5]: 7.91 µM
- TGI [5]: > 100 µM
- GI50 [6]: > 100 µM
- TGI [6]: > 100 µM
- GI50 [7]: 6.2 µM
- TGI [7]: 53.8 µM
- GI50 [8]: 11.3 µM
- TGI [8]: 26.5 µM
- GI50 [9]: 8.35 µM
- TGI [9]: 23.3 µM
- GI50 [10]: 5.65 µM
- TGI [10]: 23.7 µM

Structure (SMILES): O=C(NCCCl)NCCN1c2nc3ccccc3cc2Sc2cc3ccccc3nc21
- GI50 [1]: 1.55 µM
- TGI [1]: 4.89 µM
- GI50 [2]: 4.58 µM
- TGI [2]: 24.7 µM
- GI50 [3]: 7.01 µM
- TGI [3]: > 48.6 µM
- GI50 [4]: 1.68 µM
- TGI [4]: 5.09 µM
- GI50 [5]: 0.71 µM
- TGI [5]: 25.3 µM
- GI50 [6]: 2.71 µM
- TGI [6]: 17.8 µM
- GI50 [7]: 1.61 µM
- TGI [7]: 13 µM
- GI50 [8]: 0.9 µM
- TGI [8]: > 23.4 µM
- GI50 [9]: 4.41 µM
- TGI [9]: > 44.3 µM
- GI50 [10]: 1.37 µM
- TGI [10]: 6.55 µM

Structure (SMILES): COc1cc(-c2cc(-c3cccs3)c(C#N)c(N3CCOCC3)n2)cc(OC)c1OC
- GI50 [1]: 1.82 µM
- TGI [1]: 7.94 µM
- GI50 [2]: 2.43 µM
- TGI [2]: > 43.1 µM
- GI50 [3]: 8.22 µM
- TGI [3]: > 100 µM
- GI50 [4]: 21.7 µM
- TGI [4]: > 100 µM
- GI50 [5]: 13.7 µM
- TGI [5]: > 100 µM
- GI50 [6]: 5.83 µM
- TGI [6]: > 100 µM
- GI50 [7]: 5.08 µM
- TGI [7]: > 100 µM
- GI50 [8]: > 44.6 µM
- TGI [8]: > 100 µM
- GI50 [9]: > 50.3 µM
- TGI [9]: > 100 µM
- GI50 [10]: 3.22 µM
- TGI [10]: 9.9 µM
